Assays:
Format in all cases: biochemical
Conditions in all cases: 200 μg/ml Poly Glu-Tyr (4:1), ATP 1 uM, 90 min room temperature, luminescence
[1] = biological target: T1, Recombinant JAK3 (Amino acids 781-1124) (Homo sapiens, UniProt P52333); assay: Kinase-Glo Luminescent Kinase Assay, recombinant JAK3
T1 construct: JAK3 (Amino acids 781-1124; NM_000215.3); made in house; host or cells: baculovirus expression system (Bac-to-Bac)
Method in brief: (§1)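 Baculovirus-expressed kinase domains were pre-incubated 5 min with compound (1% DMSO), then reacted 90 min at room temperature with 200 μg/ml poly Glu-Tyr (4:1) and 1 uM ATP in 50 mM HEPES pH 7.4, 5 mM MgCl2. Remaining ATP was read by Kinase-Glo luminescence. IC50 came from four-parameter logistic fits.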

[2] = biological target: T2, Recombinant JAK1 (Amino acids 850-1154) (Homo sapiens, UniProt P23458); assay: Kinase-Glo Luminescent Kinase Assay, recombinant JAK1
T2 construct: Recombinant JAK1 (Amino acids 850-1154; NM_002227.2); made in house; host or cells: baculovirus expression system (Bac-to-Bac)
T2 sequence (P23458 850-1154): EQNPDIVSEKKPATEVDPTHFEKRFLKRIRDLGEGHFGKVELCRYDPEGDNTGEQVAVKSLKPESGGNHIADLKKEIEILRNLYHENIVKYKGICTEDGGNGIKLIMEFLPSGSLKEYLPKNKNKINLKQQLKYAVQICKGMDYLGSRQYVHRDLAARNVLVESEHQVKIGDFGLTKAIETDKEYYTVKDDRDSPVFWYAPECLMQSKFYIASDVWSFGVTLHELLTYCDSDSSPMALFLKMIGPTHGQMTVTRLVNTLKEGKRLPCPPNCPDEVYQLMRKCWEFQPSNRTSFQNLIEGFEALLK
Method in brief: as §1

[3] = biological target: T3, Recombinant JAK2 (Amino acids 808-1132) (Homo sapiens, UniProt O60674); assay: Kinase-Glo Luminescent Kinase Assay, recombinant JAK2
T3 construct: JAK2 (Amino acids 808-1132; NM_004972.3); made in house; host or cells: baculovirus expression system (Bac-to-Bac)
T3 sequence (O60674 808-1132): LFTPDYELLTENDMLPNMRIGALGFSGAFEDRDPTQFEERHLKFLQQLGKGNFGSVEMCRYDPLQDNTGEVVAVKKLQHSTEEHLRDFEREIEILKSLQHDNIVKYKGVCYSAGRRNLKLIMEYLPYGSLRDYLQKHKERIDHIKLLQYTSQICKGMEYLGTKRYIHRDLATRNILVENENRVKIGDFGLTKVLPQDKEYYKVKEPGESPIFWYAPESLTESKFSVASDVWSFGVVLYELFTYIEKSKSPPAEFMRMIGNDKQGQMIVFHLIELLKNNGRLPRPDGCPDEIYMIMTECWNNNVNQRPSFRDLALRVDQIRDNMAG
Method in brief: as §1

T1 sequence (P52333 781-1124): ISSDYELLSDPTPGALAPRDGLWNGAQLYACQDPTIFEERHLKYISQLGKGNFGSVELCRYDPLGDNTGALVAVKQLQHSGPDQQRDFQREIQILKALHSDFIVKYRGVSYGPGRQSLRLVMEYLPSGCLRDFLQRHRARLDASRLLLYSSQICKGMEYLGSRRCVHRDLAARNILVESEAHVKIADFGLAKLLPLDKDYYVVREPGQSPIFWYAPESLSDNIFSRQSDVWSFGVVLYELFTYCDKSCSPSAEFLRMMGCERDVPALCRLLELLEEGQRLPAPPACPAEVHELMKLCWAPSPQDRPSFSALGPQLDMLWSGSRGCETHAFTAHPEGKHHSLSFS

| SMILES | IC50 [1] [nM] | IC50 [2] [nM] | IC50 [3] [nM] |
| --- | --- | --- | --- |
| O=C(NC1CC1)C1CCN(c2ccnc3cnc4[nH]ccc4c23)C1 (stereo not drawn) [Ex. 85, N-cyclopropyl-1-(3H-pyrrolo[3,2-f][1,7]naphthyridin-9-yl)pyrrolidine-3-carboxamide] | > 20 | > 20 | > 20 |
| O=C(CC(F)(F)F)NC1CCCN(c2ccnc3cnc4[nH]ccc4c23)C1 (stereo not drawn) [Ex. 87, 3,3,3-trifluoro-N-[1-(3H-pyrrolo[3,2-f][1,7]naphthyridin-9-yl)-3-piperidyl] propanamide] | > 20 | > 20 | 1 to 20 |
| N#CCC(=O)N1CCN(c2ccnc3cnc4[nH]ccc4c23)CC1 [Ex. 102, 3-oxo-3-[4-(3H-pyrrolo[3,2-f][1,7]naphthyridin-9-yl)piperazin-1-yl]propanenitrile] | > 20 | > 20 | > 20 |
| N#CCS(=O)(=O)N1CCN(c2ccnc3cnc4[nH]ccc4c23)CC1 [Ex. 105, 2-[4-(3H-pyrrolo[3,2-f][1,7]naphthyridin-9-yl)piperazin-1-yl]sulfonylacetonitrile] | > 20 | 1 to 20 | > 20 |
